Experimental data reported in patent US20240279207A1, “SUBSTITUTED ACYL SULFONAMIDES FOR TREATING CANCER” (The Broad Institute, Inc., priority 2020, published 2024).
pIC50: −log10 of the molar value. Like-named read-outs stand apart in the source and are kept apart here.

Experiments:
[1] = test system: ESR1 transcription in MVLN cells; assay: MVLN reporter assay: repression of ESR1 transcription (luciferase signal); assay type: cell-based; details: luciferase signal after 24 h, read-out: MVLN reporter assay, IC50 [M] (arithmetic mean)
How it was run: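 MVLN cells, expressing ER and stably carrying a vitellogenin A2 ERE-luciferase reporter, treated with compound in duplicate; luciferase read after 24 h with Steadylite plus. Cell density checked in parallel by Alamar Blue fluorescence (530/590 nm, 2 h) before the luciferase read.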

ZR-75-1 cells = assay: ZR-75-1 proliferation assay; assay type: cell-based; details: Alamar Blue, read-out: ZR75-1 proliferation assay, EC50 [M] (arithmetic mean)
How it was run: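 ZR-75-1 cells (focal KAT6A amplification), 3000 per well in RPMI 1640 with 2.5% FBS, were exposed to compound in triplicate for 144 h at 37 °C, 5% CO2. Viability read by Alamar Blue fluorescence at 590 nm after 2 h.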

MDA-MB-436 cells = assay: MDA-MB-436 proliferation assay (negative control cell line); assay type: cell-based; details: 144 h, Alamar Blue, read-out: MDA-MB-436 proliferation assay, EC50 [M] (arithmetic mean)
How it was run: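 MDA-MB-436 cells (KAT6A deletion, low KAT6A protein) seeded at 3000 cells/well in DMEM/Ham's F12 with 2.5% FBS, treated in triplicate for 144 h at 37° C, 5% CO2. Viability read by Alamar Blue fluorescence at 590 nm after 2 h.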

LCLC97TM1 = LCLC97TM1 proliferation assay; assay type: cell-based; details: read-out: LCLC97TM1 proliferation assay, EC50 [M] (arithmetic mean)
[2] = target: T1, Recombinant human GST-tagged Kat6b protein (431-end) (Homo sapiens, UniProt Q8WYB5); assay: Kat6b activity assay (TR-FRET, acetylation of Histone-H4-derived peptide); assay type: biochemical; details: 30 mins at 22° C., 500 nM H4 peptide, 600 nM Acetyl Coenzyme A, read-out: KAT6B activity assay IC50 [mol/l] (arithmetic mean)
T1 construct: Kat6b protein (431-end, N-terminal GST-tag); GST (N)
Experimental: Kat6b inhibitory activities of the compounds described in the present invention were quantified using a Fluorescence Resonance Energy Transfer (TR-FRET) assay which measures acetylation of a synthetic, biotinylated Histone-H4-derived peptide by the enzyme.
In this case 50 nl DMSO were used instead of compounds. […] IC50 values were determined by regression analysis based on a 4 parameter equation (minimum, maximum, ICM, Hill; Y=Max+(Min−Max)/(1+(X/ICso) Hill) using the Screener Software (Genedata).

[3] = target: T2, Recombinant human His-tagged Kat6a protein (amino acids 194-810) (Homo sapiens, UniProt Q92794); assay: Kat6a activity assay (TR-FRET, acetylation of Histone-H4-derived peptide); assay type: biochemical; details: 60 mins at 22° C., 220 nM H4 peptide, 600 nM Acetyl Coenzyme A, read-out: KAT6A - DPF/HAT domain IC50 [mol/l] (arithmetic mean)
T2 construct: Kat6a protein (amino acids 194-810); His

[4] = Homo sapiens, LCLC-97TM1, LCLC97TM1

T2 sequence (Q92794 194-810): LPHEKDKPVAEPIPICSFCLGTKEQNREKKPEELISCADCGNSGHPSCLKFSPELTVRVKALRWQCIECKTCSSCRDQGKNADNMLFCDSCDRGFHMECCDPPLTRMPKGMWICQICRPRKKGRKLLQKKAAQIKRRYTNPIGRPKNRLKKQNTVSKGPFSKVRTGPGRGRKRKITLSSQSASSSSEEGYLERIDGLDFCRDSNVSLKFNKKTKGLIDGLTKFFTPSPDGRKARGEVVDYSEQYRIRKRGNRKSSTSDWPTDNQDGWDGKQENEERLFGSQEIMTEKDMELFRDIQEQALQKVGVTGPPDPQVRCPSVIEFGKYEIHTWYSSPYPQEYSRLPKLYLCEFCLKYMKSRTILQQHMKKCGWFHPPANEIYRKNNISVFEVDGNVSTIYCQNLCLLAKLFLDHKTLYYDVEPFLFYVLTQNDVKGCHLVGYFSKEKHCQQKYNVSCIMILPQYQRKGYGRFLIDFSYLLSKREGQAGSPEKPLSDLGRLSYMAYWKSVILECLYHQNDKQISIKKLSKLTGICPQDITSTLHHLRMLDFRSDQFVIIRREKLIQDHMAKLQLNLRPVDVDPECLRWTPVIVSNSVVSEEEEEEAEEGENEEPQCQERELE
T1 sequence (Q8WYB5 431-2073): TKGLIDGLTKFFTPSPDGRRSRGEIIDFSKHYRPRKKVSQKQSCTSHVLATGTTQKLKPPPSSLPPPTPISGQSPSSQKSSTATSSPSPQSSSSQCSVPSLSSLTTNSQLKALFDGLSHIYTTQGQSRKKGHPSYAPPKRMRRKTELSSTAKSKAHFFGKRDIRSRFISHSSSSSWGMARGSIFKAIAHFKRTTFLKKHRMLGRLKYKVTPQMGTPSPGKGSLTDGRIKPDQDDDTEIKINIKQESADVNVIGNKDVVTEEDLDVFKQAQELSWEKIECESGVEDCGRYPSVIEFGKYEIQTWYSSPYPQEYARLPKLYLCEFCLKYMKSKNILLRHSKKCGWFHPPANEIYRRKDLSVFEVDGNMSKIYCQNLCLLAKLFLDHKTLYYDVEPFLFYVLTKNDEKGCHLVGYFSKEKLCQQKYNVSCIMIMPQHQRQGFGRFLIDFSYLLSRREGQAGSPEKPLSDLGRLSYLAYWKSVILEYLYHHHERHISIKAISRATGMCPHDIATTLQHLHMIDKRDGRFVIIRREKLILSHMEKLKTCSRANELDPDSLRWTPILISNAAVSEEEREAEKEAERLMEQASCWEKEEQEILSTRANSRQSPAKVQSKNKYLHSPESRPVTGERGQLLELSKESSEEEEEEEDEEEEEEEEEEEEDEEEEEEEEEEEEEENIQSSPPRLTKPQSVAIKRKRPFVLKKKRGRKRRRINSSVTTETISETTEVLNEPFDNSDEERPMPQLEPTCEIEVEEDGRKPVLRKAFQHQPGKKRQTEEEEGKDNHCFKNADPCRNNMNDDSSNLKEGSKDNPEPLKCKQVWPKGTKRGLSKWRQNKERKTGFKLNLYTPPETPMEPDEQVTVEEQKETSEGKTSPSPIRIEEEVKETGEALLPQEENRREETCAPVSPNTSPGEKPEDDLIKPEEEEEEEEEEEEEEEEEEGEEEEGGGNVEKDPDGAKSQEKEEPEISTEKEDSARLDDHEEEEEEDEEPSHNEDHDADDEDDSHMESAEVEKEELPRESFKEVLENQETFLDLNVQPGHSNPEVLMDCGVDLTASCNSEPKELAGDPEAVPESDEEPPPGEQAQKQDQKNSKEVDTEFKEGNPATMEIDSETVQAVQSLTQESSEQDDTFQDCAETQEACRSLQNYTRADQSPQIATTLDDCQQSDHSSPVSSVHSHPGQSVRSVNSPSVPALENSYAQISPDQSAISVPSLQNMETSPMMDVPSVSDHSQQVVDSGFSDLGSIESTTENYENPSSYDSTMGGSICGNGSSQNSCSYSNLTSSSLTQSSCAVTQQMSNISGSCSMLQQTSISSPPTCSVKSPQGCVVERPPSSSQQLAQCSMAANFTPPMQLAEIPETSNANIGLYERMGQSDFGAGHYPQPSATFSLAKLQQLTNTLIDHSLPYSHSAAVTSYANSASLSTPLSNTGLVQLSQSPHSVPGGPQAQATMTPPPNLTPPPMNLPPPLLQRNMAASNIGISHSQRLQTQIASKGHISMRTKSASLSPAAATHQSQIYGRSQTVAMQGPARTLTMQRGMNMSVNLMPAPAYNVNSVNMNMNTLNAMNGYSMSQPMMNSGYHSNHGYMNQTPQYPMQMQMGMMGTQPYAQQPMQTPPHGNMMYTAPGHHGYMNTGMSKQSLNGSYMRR

| Structure (SMILES) | IC50 ([1]; Homo sapiens, MVLN, 24 h) [M] | EC50 (MDA-MB-436 cells; Homo sapiens) [M] | pIC50 [2] | pIC50 [3] | IC50 [1] [M] | EC50 (MDA-MB-436 cells) [M] | EC50 (ZR-75-1 cells; Homo sapiens, ZR-75-1, 144 h) [M] | EC50 (LCLC97TM1; [4]) [M] | EC50 (LCLC97TM1; LCLC97TM1) [M] | EC50 (ZR-75-1 cells; 144 h) [M] |
| --- | --- | --- | --- | --- | --- | --- | --- | --- | --- | --- |
| Cc1ccc2cccc(S(=O)(=O)NC(=O)c3cc4c(F)cc(N5CC(F)C5)cc4o3)c2n1 [Example 152, 4-Fluoro-6-(3-fluoroazetidin-1-yl)-N-(2-methylquinoline-8-sulfonyl)-1-benzofuran-2-carboxamide] | 3.69e-08 | > 2e-05 | 7.69 | 7.86 | – | – | 7.66e-08 | 1.63e-07 | – | – |
| O=C(NS(=O)(=O)c1ccccc1-c1ccccc1)c1cc2ccc(N3CCC3)cc2o1 [Example 26, 6-(Azetidin-1-yl)-N-([1,1′-biphenyl]-2-sulfonyl)-1-benzofuran-2-carboxamide] | 3.85e-07 | > 2e-05 | 6.53 | 6.84 | – | – | 5.06e-07 | 3.9e-06 | – | – |
| CC(C)Oc1ccc(C(C)(C)C)cc1S(=O)(=O)NC(=O)c1cc2c(F)cc(N3CCC3)cc2o1 [Example 229, 6-(Azetidin-1-yl)-N-[(5-(tert-butyl)-2-isopropoxyphenyl)sulfonyl]-4-fluorobenzofuran-2-carboxamide] | 3.83e-08 | > 2e-05 | 7.56 | 8.32 | – | – | 2.18e-07 | 1.8e-07 | – | – |
| CCOc1ccccc1S(=O)(=O)NC(=O)c1cc2c(F)cc(N3CCC3)cc2o1 [Example 2, 6-(Azetidin-1-yl)-N-(2-ethoxybenzene-1-sulfonyl)-4-fluoro-1-benzofuran-2-carboxamide] | 5.54e-08 | > 2e-05 | 7.02 | 7.34 | – | – | 1.64e-07 | – | 3.38e-07 | – |
| O=C(NS(=O)(=O)c1ccccc1OC1CC1)c1cc2c(F)cc(N3CCC3)cc2o1 [Example 131, 6-(Azetidin-1-yl)-N-[2-(cyclopropyloxy)benzene-1-sulfonyl]-4-fluoro-1-benzofuran-2-carboxamide] | 3.83e-08 | > 2e-05 | 7.63 | 7.63 | – | – | 2.09e-07 | 7.53e-08 | – | – |
| CC(C)c1ccc(OCC2CC2(F)F)c(S(=O)(=O)NC(=O)c2cc3c(F)cc(N4CCC4)cc3o2)c1 (racemic) [Example 231, 6-(Azetidin-1-yl)-N-((2-((2,2-difluorocyclopropyl)methoxy)-5-isopropylphenyl)sulfonyl)-4-fluorobenzofuran-2-carboxamide (rac)] | 1.83e-08 | > 2e-05 | 7.54 | 8.37 | – | – | 1.58e-07 | 1.99e-07 | – | – |
| CCOc1cccc(OC)c1S(=O)(=O)NC(=O)c1cc2c(F)cc(N3CCC3)cc2o1 [Example 1, 6-(Azetidin-1-yl)-N-(2-ethoxy-6-methoxybenzene-1-sulfonyl)-4-fluoro-1-benzofuran-2-carboxamide] | 3.89e-08 | > 2e-05 | 7.68 | 8.06 | – | – | 7.18e-08 | 2.13e-07 | – | – |
| COc1ccc(-c2cn(C)nc2C)cc1S(=O)(=O)NC(=O)c1cc2c(F)cc(N3CCC3)cc2o1 [Example 195, 6-(Azetidin-1-yl)-N-[5-(1,3-dimethyl-1H-pyrazol-4-yl)-2-methoxybenzene-1-sulfonyl]-4-fluoro-1-benzofuran-2-carboxamide] | 1.11e-07 | > 2e-05 | 7.70 | 8.29 | – | – | 1.99e-07 | 8.37e-07 | – | – |
| CCOc1ccc(C(C)(C)C)cc1S(=O)(=O)NC(=O)c1cc2c(F)cc(N3CC(F)C3)cc2o1 [Example 113, N-(5-tert-butyl-2-ethoxybenzene-1-sulfonyl)-4-fluoro-6-(3-fluoroazetidin-1-yl)-1-benzofuran-2-carboxamide] | 1.08e-08 | > 2e-05 | 7.94 | 8.35 | – | – | 2.94e-08 | 3.7e-08 | – | – |
| COc1ccc(C(C)(C)C)cc1S(=O)(=O)NC(=O)c1cc2c(F)cc(N3CC(F)C3)cc2o1 [Example 150, N-(5-tert-butyl-2-methoxybenzene-1-sulfonyl)-4-fluoro-6-(3-fluoroazetidin-1-yl)-1-benzofuran-2-carboxamide] | 5.97e-09 | > 2e-05 | 8.01 | 8.37 | – | – | 5.78e-08 | 4.58e-08 | – | – |
| Cc1ccc2cccc(S(=O)(=O)NC(=O)c3cc4c(F)cc(N5CCC5)cc4o3)c2n1 [Example 130, 6-(Azetidin-1-yl)-4-fluoro-N-(2-methylquinoline-8-sulfonyl)-1-benzofuran-2-carboxamide] | 3.23e-08 | > 2e-05 | 7.71 | 7.86 | – | – | 8.86e-08 | 2.36e-07 | – | – |
| CC(C)(C)c1ccc(OC2CCC2)c(S(=O)(=O)NC(=O)c2cc3c(F)cc(N4CCC4)cc3o2)c1 [Example 228, 6-(Azetidin-1-yl)-N-[(5-(tert-butyl)-2-cyclobutoxyphenyl)sulfonyl]-4-fluorobenzofuran-2-carboxamide] | 2.39e-08 | > 2e-05 | 7.87 | 8.59 | – | – | 1.16e-07 | 1.67e-07 | – | – |

Continued, in another order:

| IC50 ([1]; Homo sapiens, MVLN, 24 h) [M] | EC50 (MDA-MB-436 cells; Homo sapiens) [M] | pIC50 [2] | pIC50 [3] | IC50 [1] [M] | EC50 (MDA-MB-436 cells) [M] | Structure (SMILES) | EC50 (ZR-75-1 cells; Homo sapiens, ZR-75-1, 144 h) [M] | EC50 (LCLC97TM1; [4]) [M] | EC50 (LCLC97TM1; LCLC97TM1) [M] | EC50 (ZR-75-1 cells; 144 h) [M] |
| --- | --- | --- | --- | --- | --- | --- | --- | --- | --- | --- |
| 9.04e-09 | > 2e-05 | 8.25 | 8.73 | – | – | CCOc1ccc(C(C)CC)cc1S(=O)(=O)NC(=O)c1cc2c(F)cc(N3CCC3)cc2o1 (racemic) [Example 207, 6-(Azetidin-1-yl)-N-[(5-sec-butyl-2-ethoxyphenyl)sulfonyl]-4-fluoro-1-benzofuran-2-carboxamide (rac)] | 1.03e-07 | 4.29e-08 | – | – |
| 1.55e-08 | > 2e-05 | 7.86 | 8.24 | – | – | CCOc1ccc(C(C)C)cc1S(=O)(=O)NC(=O)c1cc2c(F)cc(N3CC(F)C3)cc2o1 [Example 151, N-[2-ethoxy-5-(propan-2-yl)benzene-1-sulfonyl]-4-fluoro-6-(3-fluoroazetidin-1-yl)-1-benzofuran-2-carboxamide] | 5.67e-08 | 6.63e-08 | – | – |
| 1.9e-08 | > 2e-05 | 7.82 | 8.09 | – | – | CCOc1ccc(C(C)C)cc1S(=O)(=O)NC(=O)c1cc2c(F)cc(N3CCC3)cc2o1 [Example 128, 6-(Azetidin-1-yl)-N-[2-ethoxy-5-(propan-2-yl)benzene-1-sulfonyl]-4-fluoro-1-benzofuran-2-carboxamide] | 6.73e-08 | 2.2e-07 | – | – |
| – | – | 6.55 | 7.25 | 9.43e-08 | > 2e-05 | CCOc1ccccc1S(=O)(=O)NC(=O)c1cc2c(F)cc(N3CCC3)cc2o1 [Example 126, Sodium [6-(azetidin-1-yl)-4-fluoro-1-benzofuran-2-carbonyl](2-ethoxybenzene-1-sulfonyl)azanide] | – | – | 1.12e-06 | 3.07e-07 |
| 2.76e-08 | 1.77e-05 | 8.01 | 8.43 | – | – | CC(C)(C)c1ccc(OCc2ccccc2)c(S(=O)(=O)NC(=O)c2cc3c(F)cc(N4CCC4)cc3o2)c1 [Example 225, 6-(Azetidin-1-yl)-N-[(2-(benzyloxy)-5-(tert-butyl)phenyl]sulfonyl)-4-fluorobenzofuran-2-carboxamide] | 7.5e-08 | 1.14e-07 | – | – |
| 2.1e-08 | > 2e-05 | 7.87 | 8.02 | – | – | CC(C)c1cccnc1S(=O)(=O)NC(=O)c1cc2c(F)cc(N3CCC3)cc2o1 [Example 79, 6-(Azetidin-1-yl)-4-fluoro-N-[3-(propan-2-yl)pyridine-2-sulfonyl]-1-benzofuran-2-carboxamide] | 3.61e-08 | 3.9e-08 | – | – |
